Target: T1, human TRPA1 (Homo sapiens, UniProt O75762)
T1 construct: expressed in transfected cells; host or cells: CHO cells
Assay: TRPA1 FLIPR Tetra calcium influx assay in CHO cells (block of cinnamaldehyde-induced calcium influx)
Assay type: cell-based
Settings: Table 2; CHO cells expressing TRPA1; agonist cinnamaldehyde 75 uM; 20 min compound incubation; Hill coefficient fixed to 1.5; read-out: hTRPA1 CHO Ca2+ AUC EVO (IC50)
In short: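 CHO cells expressing TRPA1 were loaded with calcium dye in HBSS/20 mM HEPES, pH 7.4, 0.02% BSA, then given compound for 20 min at room temperature before ~EC80 cinnamaldehyde (75 µM human, 45 µM rat). Block of calcium influx was read on FLIPR Tetra; IC50 fitted with Hill coefficient fixed at 1.5.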

T1 sequence (O75762 whole entry): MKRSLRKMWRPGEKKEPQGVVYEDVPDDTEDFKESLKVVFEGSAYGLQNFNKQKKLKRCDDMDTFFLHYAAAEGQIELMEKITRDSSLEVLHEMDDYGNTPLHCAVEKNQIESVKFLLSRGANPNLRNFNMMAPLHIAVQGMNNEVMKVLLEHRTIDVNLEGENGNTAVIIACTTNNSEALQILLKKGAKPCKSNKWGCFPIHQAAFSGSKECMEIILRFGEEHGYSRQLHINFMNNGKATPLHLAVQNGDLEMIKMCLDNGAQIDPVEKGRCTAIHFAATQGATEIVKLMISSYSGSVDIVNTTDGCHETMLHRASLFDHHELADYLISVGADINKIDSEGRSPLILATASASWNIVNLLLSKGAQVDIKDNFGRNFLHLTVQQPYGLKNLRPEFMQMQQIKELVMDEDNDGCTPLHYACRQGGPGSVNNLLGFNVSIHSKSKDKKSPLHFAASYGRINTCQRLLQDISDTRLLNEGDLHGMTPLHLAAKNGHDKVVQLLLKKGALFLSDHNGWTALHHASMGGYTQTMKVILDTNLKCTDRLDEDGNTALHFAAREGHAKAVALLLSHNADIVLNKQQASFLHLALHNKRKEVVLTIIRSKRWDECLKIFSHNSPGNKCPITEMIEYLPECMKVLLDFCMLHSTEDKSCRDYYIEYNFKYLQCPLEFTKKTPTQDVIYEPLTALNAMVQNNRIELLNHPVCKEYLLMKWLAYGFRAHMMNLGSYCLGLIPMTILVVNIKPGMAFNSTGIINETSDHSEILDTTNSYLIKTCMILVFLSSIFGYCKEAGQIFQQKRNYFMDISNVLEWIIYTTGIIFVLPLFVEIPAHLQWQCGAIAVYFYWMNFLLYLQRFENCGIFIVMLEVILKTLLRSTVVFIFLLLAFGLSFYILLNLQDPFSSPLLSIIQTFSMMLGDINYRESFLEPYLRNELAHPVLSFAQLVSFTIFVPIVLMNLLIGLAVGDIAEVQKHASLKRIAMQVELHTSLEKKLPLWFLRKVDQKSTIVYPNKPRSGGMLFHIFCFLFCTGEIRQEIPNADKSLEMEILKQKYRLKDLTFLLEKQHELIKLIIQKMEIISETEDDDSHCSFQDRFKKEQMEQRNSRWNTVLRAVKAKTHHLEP

| IC50 | SMILES |
| --- | --- |
| 5.38 nM | C[C@H]1[C@H](F)C[C@@H](C(=O)NCc2cc(-c3cnc(C(F)(F)F)s3)ncc2F)N1S(=O)(=O)c1ccc(F)cc1 [Example 93, (2S,4R,5S)-4-fluoro-1-(4-fluorophenyl)sulfonyl-N-[[5-fluoro-2-[2-(trifluoromethyl)thiazol-5-yl]-4-pyridyl]methyl]-5-methyl-pyrrolidine-2-carboxamide] |
| 5.52 nM | C[C@H]1[C@H](F)C[C@@H](C(=O)NCc2cc(C3CCN(CC(F)(F)C(F)(F)F)CC3)ncc2F)N1S(=O)(=O)c1ccc(F)cc1 [Example 94, (2S,4R,5S)-4-fluoro-N-[[5-fluoro-2-[1-(2,2,3,3,3-pentafluoropropyl)-4-piperidyl]-4-pyridyl]methyl]-1-(4-fluorophenyl)sulfonyl-5-methyl-pyrrolidine-2-carboxamide] |
| 1.49 nM | C[C@H]1[C@H](F)C[C@@H](C(=O)NCc2cc(-c3cnc(C(F)(F)F)nc3)ncc2F)N1S(=O)(=O)c1cc2ccccc2o1 [Example 95, (2S,4R,5S)-1-(benzofuran-2-ylsulfonyl)-4-fluoro-N-[[5-fluoro-2-[2-(trifluoromethyl)pyrimidin-5-yl]-4-pyridyl]methyl]-5-methyl-pyrrolidine-2-carboxamide] |
| 22.5 nM | C[C@H]1[C@H](F)C[C@@H](C(=O)NCc2cc(-c3ncc(C(F)(F)F)s3)c(F)cn2)N1S(=O)(=O)c1ccc(F)cc1 [Example 96, (2S,4R,5S)-4-fluoro-1-(4-fluorophenyl)sulfonyl-N-[[5-fluoro-4-[5-(trifluoromethyl)thiazol-2-yl]-2-pyridyl]methyl]-5-methyl-pyrrolidine-2-carboxamide] |
| 6.06 nM | C[C@H]1[C@H](F)C[C@@H](C(=O)NCc2cc(-c3cnc(C(F)(F)F)nc3)cc(F)c2F)N1S(=O)(=O)c1ccc(F)cc1 [Example 97, (2S,4R,5S)-N-[[2-1,3-difluoro-5-[2-(trifluoromethyl)pyrimidin-5-yl]phenyl]methyl]-4-fluoro-1-(4-fluorophenyl)sulfonyl-5-methyl-pyrrolidine-2-carboxamide] |
| 5.61 nM | C[C@H]1[C@H](F)C[C@@H](C(=O)NCc2cc(-c3cnc(C(F)(F)F)nc3)ncc2F)N1S(=O)(=O)c1cc2ccccc2s1 [Example 98, (2S,4R,5S)-1-(benzothiophen-2-ylsulfonyl)-4-fluoro-N-[[5-fluoro-2-[2-(trifluoromethyl)pyrimidin-5-yl]-4-pyridyl]methyl]-5-methyl-pyrrolidine-2-carboxamide] |
| 9.67 nM | C[C@H]1[C@H](F)C[C@@H](C(=O)NCc2cc(-c3cnc(C(F)(F)F)nc3)ncc2F)N1S(=O)(=O)c1cc2cc(F)ccc2s1 [Example 99, (2S,4R,5S)-4-fluoro-1-(5-fluorobenzothiophen-2-yl)sulfonyl-N-[[5-fluoro-2-[2-(trifluoromethyl)pyrimidin-5-yl]-4-pyridyl]methyl]-5-methyl-pyrrolidine-2-carboxamide] |
| 12.7 nM | Cc1cnc(-c2cnc(C(F)(F)F)nc2)cc1CNC(=O)[C@@H]1C[C@@H](F)[C@H](C)N1S(=O)(=O)c1ccc(F)cc1 [Example 100, (2S,4R,5S)-4-fluoro-1-((4-fluorophenyl)sulfonyl)-5-methyl-N-((5-methyl-2-(2-(trifluoromethyl)pyrimidin-5-yl)pyridin-4-yl)methyl)pyrrolidine-2-carboxamide] |
| 0.545 nM | C[C@H]1[C@H](F)C[C@@H](C(=O)NCc2cc(-c3cnc(C(F)(F)F)nc3)ncc2F)N1S(=O)(=O)c1ccc(Cl)s1 [Example 101, (2S,4R,5S)-1-[(5-chloro-2-thienyl)sulfonyl]-4-fluoro-N-[[5-fluoro-2-[2-(trifluoromethyl)pyrimidin-5-yl]-4-pyridyl]methyl]-5-methyl-pyrrolidine-2-carboxamide] |
| 4.07 nM | C[C@H]1[C@H](F)C[C@@H](C(=O)NCc2cc(-c3cnc(C(F)(F)F)nc3)ncc2C(F)F)N1S(=O)(=O)c1ccc(F)cc1 [Example 102, (2S,4R,5S)—N-((5-(difluoromethyl)-2-(2-(trifluoromethyl)pyrimidin-5-yl)pyridin-4-yl)methyl)-4-fluoro-1-(4-fluorophenylsulfonyl)-5-methylpyrrolidine-2-carboxamide] |
| 0.777 nM | C[C@H]1[C@H](F)C[C@@H](C(=O)NCc2cc(-c3cnc(C(F)(F)F)nc3)ncc2C(F)(F)F)N1S(=O)(=O)c1ccc(F)cc1 [Example 103, (2S,4R,5S)-4-fluoro-1-(4-fluorophenylsulfonyl)-5-methyl-N-((5-(trifluoromethyl)-2-(2-(trifluoromethyl)pyrimidin-5-yl)pyridin-4-yl)methyl)pyrrolidine-2-carboxamide] |
| 0.682 nM | C[C@H]1[C@H](F)C[C@@H](C(=O)NCc2cc(-c3cnc(C(F)(F)F)nc3)nc(C3CC3)c2C#N)N1S(=O)(=O)c1ccc(F)cc1 [Example 104, (2S,4R,5S)—N-((3-cyano-2-cyclopropyl-6-(2-(trifluoromethyl)pyrimidin-5-yl)pyridin-4-yl)methyl)-4-fluoro-1-(4-fluorophenylsulfonyl)-5-methylpyrrolidine-2-carboxamide] |
| 0.875 nM | C[C@H]1[C@H](F)C[C@@H](C(=O)NCc2cc(-c3cnc(C(F)(F)F)nc3)ncc2OC(F)(F)F)N1S(=O)(=O)c1ccc(F)cc1 [Example 105, (2S,4R,5S)-4-fluoro-1-(4-fluorophenyl)sulfonyl-5-methyl-N-[[5-(trifluoromethoxy)-2-[2-(trifluoromethyl)pyrimidin-5-yl]-4-pyridyl]methyl]pyrrolidine-2-carboxamide] |
| 2.2 nM | C[C@H]1[C@H](F)C[C@@H](C(=O)NCc2cc(-c3cnc(C(F)(F)F)nc3)c(OC(F)(F)F)cn2)N1S(=O)(=O)c1ccc(F)cc1 [Example 106, (2S,4R,5S)-4-fluoro-1-(4-fluorophenyl)sulfonyl-5-methyl-N-[[5-(trifluoromethoxy)-4-[2-(trifluoromethyl)pyrimidin-5-yl]-2-pyridyl]methyl]pyrrolidine-2-carboxamide] |
| 9.74 nM | C[C@H]1[C@H](F)C[C@@H](C(=O)NCc2cc(-c3cnc(C(F)(F)F)nc3)c(C(F)(F)F)cn2)N1S(=O)(=O)c1ccc(F)cc1 [Example 107, (2S,4R,5S)-4-fluoro-1-(4-fluorophenyl)sulfonyl-5-methyl-N-[[5-(trifluoromethyl)-4-[2-(trifluoromethyl)pyrimidin-5-yl]-2-pyridyl]methyl]pyrrolidine-2-carboxamide] |
| 2 nM | C[C@H]1[C@H](F)C[C@@H](C(=O)NCc2cc(-c3cnc(C(F)(F)F)nc3)nc(C(F)(F)F)n2)N1S(=O)(=O)c1ccc(F)cc1 [Example 108, (2S,4R,5S)-4-fluoro-1-(4-fluorophenyl)sulfonyl-5-methyl-N-[[2-(trifluoromethyl)-6-[2-(trifluoromethyl)pyrimidin-5-yl]pyrimidin-4-yl]methyl]pyrrolidine-2-carboxamide] |
| 16.9 nM | C[C@H]1[C@H](F)C[C@@H](C(=O)NCc2cnc(C(F)(F)F)c(-c3cnc(C(F)(F)F)nc3)c2)N1S(=O)(=O)c1ccc(F)cc1 [Example 109, (2S,4R,5S)-4-fluoro-1-(4-fluorophenyl)sulfonyl-5-methyl-N-[[6-(trifluoromethyl)-5-[2-(trifluoromethyl)pyrimidin-5-yl]-3-pyridyl]methyl]pyrrolidine-2-carboxamide] |
| 10.6 nM | C[C@H]1[C@H](F)C[C@@H](C(=O)NCc2cc(-c3cnc(C(F)(F)F)nc3)cnc2C2CC2)N1S(=O)(=O)c1ccc(F)cc1 [Example 110, (2S,4R,5S)-N-[[2-cyclopropyl-5-[2-(trifluoromethyl)pyrimidin-5-yl]-3-pyridyl]methyl]-4-fluoro-1-(4-fluorophenyl)sulfonyl-5-methyl-pyrrolidine-2-carboxamide] |
| 1.75 nM | C[C@H]1[C@H](F)C[C@@H](C(=O)NCc2cc(-c3cnc(C(F)(F)F)nc3)ccc2C(F)(F)F)N1S(=O)(=O)c1ccc(F)cc1 [Example 111, (2S,4R,5S)-4-fluoro-1-(4-fluorophenyl)sulfonyl-5-methyl-N-[[2-(trifluoromethyl)-5-[2-(trifluoromethyl)pyrimidin-5-yl]phenyl]methyl]pyrrolidine-2-carboxamide] |
| 1.94 nM | C[C@H]1[C@H](F)C[C@@H](C(=O)NCc2cc(-c3cnc(C(F)(F)F)cn3)ncc2C(F)(F)F)N1S(=O)(=O)c1ccc(F)cc1 [Example 112, (2S,4R,5 S)-4-fluoro-1-(4-fluorophenylsulfonyl)-5-methyl-N-((5-(trifluoromethyl)-2-(5-(trifluoromethyl)pyrazin-2-yl)pyridin-4-yl)methyl)pyrrolidine-2-carboxamide] |
| 4.47 nM | C[C@H]1[C@H](F)C[C@@H](C(=O)NCc2cc(-c3cnc(C(F)(F)F)nc3)nc(C(F)(F)F)c2)N1S(=O)(=O)c1ccc(F)cc1 [Example 113, (2S,4R,5S)-4-fluoro-1-(4-fluorophenyl)sulfonyl-5-methyl-N-[[2-(trifluoromethyl)-6-[2-(trifluoromethyl)pyrimidin-5-yl]-4-pyridyl]methyl]pyrrolidine-2-carboxamide] |
| 3.57 nM | C[C@H]1[C@H](F)C[C@@H](C(=O)NCc2cc(-c3ccc(OC(F)F)nc3)ncc2C(F)(F)F)N1S(=O)(=O)c1ccc(F)cc1 [Example 114, (2S,4R,5S)—N-([2-[6-(difluoromethoxy)pyridin-3-yl]-5-(trifluoromethyl)pyridin-4-yl]methyl)-4-fluoro-1-[(4-fluorobenzene)sulfonyl]-5-methylpyrrolidine-2-carboxamide] |
| 1.34 nM | C[C@H]1[C@H](F)C[C@@H](C(=O)NCc2cc(-c3ccc(C(F)(F)F)nc3)ncc2C(F)(F)F)N1S(=O)(=O)c1ccc(F)cc1 [Example 115, (2S,4R,5S)-4-fluoro-1-(4-fluorophenyl)sulfonyl-5-methyl-N-[[5-(trifluoromethyl)-2-[6-(trifluoromethyl)-3-pyridyl]-4-pyridyl]methyl]pyrrolidine-2-carboxamide] |
